Usually IC50 stands for the midpoint of a concentration-inhibition curve.

Values joined by “and” are separate entries in the source; they are usually repeats but may differ in a detail not shown here. Equal entries are not always repeated.

The results in this text go back to publication PMC5841658, “Anti-cancer characteristics and ototoxicity of platinum(II) amine complexes with only one leaving ligand” (PLoS ONE, 2018).

Series [1] relates to 5'-GMP. The series is described as follows: Kinetic 5'-GMP assay (1H NMR, rate of reaction of platinum complex with 5'-GMP). Format: biochemical. The following applies: D2O, pH 7, 25°C; for Rate constant for the reaction of 5'-GMP with the platinum(II) complex: excess platinum, fitted first order in each reactant. On the procedure: The reaction of each platinum compound with 5'-GMP (Acros) was monitored using ^1H NMR spectroscopy to observe the disappearance of the H8 signal of the unreacted 5'-GMP at ≈8 ppm and the appearance of a product signal ≈0.5–1.0 ppm downfield of the unreacted 5'-GMP. The reaction was conducted with excess platinum compound present in each case. A 10 mM solution of 5'-GMP and a 10–20 mM solution of the platinum(II) compound were prepared separately in D2O. The pH (uncorrected for the effects of deuterium) of each solution was adjusted to 7, and the samples were equilibrated to 25°C in a water bath. Aliquots of the two solutions were combined and placed in an NMR tube; typically, the final concentrations of platinum was 5–18 mM and the concentration of 5'-GMP was 1 mM (except for the [Pt(dien)Cl]^+ reaction, where it was 0.5 mM). Samples were maintained at 25°C throughout the NMR experiment. The H8 resonances were integrated and the data was fitted to an equation that was first order in each reactant using DynaFit to determine rate constants. At least two runs were conducted for each platinum compound using fresh samples.

In series [2] the test system is A549 lung cancer cell line. The experiment in a line: MTT cellular viability assay, A549. It counts as cell-based. The following applies: 72 hours, ± standard deviation. On the procedure: Cell lines were obtained from American Type Culture Collection (ATCC, Manassas, VA). […] Caco-2 (ATCC: HTB-37) colorectal cancer was grown in EMEM with 20% FBS and 1% penicillin/streptomycin. All cell lines were incubated at 37°C in 5% CO2 with passaging every 4–7 days. Cell culture media and supplements were obtained from ATCC, Atlanta Biologicals (Flowery Branch, GA), Mediatech (Tewksbury, MA), Fisher Scientific (Waltham, MA), Gibco (Gaithersburg, MD) and Sigma-Aldrich.
The MTT (3-(4,5-dimethylthiazol-2-yl)-2,5-diphenyltetrazolium bromide) cellular viability assay was performed in all three cancer cell lines and the non-cancer cell line. Following a protocol adapted from, cells were seeded at 5,000 cells per well in 96-well plates and incubated at 37°C in 5% CO2 in F-12K Medium or EMEM with FBS supplementation and 1% penicillin/streptomycin for 24 hours. Then, wells were treated in replicates of six according to a concentration series (500, 50, 5, 0.5, 0.05 μM) of specific platinum complexes for 72 hours. A negative control (media only), positive control (Triton X-100) and series of blanks were simultaneously performed. The MTT assay was run for 2 hours, then well contents were rapidly evacuated out and all wells were treated with MTT solubilization solution [10% Triton X-100 in acidic (0.1N HCl) isopropanol] for 15 minutes before the plates were read using a BioTek Synergy HT microplate plate reader (570 nm and 690 nm absorbance wavelengths). Reagents, cell culture media and supplements were obtained from ATCC, Atlanta Biologicals, Mediatech, Fisher Scientific, Gibco and Sigma-Aldrich.
GraphPad Prism v6 (La Jolla, CA) was used for all statistical analysis. Nuclear fraction platinum uptake as a total percent of combined nuclear and cytosolic uptake was analyzed using a one-way ANOVA (Brown-Forsyth test; p ≤ 0.05). IC50 values were calculated in Prism using the sigmoidal, 4PL, x is log(concentration) analysis feature or were calculated from Prism derived values using the equation y = mx + b. MTT assay standard deviation values were calculated using ED50plus v1.0 online software. AEP threshold data were analyzed by two-way ANOVA (Dunnett’s multiple comparisons test; p ≤ 0.05) and hair cell quantification data by two-way ANOVA (Tukey’s multiple comparisons test; p ≤ 0.05). AEP temporary threshold shifts (TTS) were calculated by subtracting the mean vehicle threshold for each frequency from each treatment threshold. TTS data were averaged across frequencies for each treatment and were analyzed by one-way ANOVA (Tukey’s multiple comparisons test; p ≤ 0.05).
(Tetrazolium assays rely on reduction of a dye to a coloured formazan, in cell work by metabolically active cells.)

Series [3] relates to zebrafish utricle hair cells. The series is described as follows: Hair cell quantification, utricle. It counts as in vivo, Danio rerio. The following applies: extrastriolar (E1-E3) and striolar (S1-S3) regions, 25 mg/kg i.p., 48 hours. The text has this:
Zebrafish (Danio rerio) were purchased from a commercial supplier (Segrest Farms, Gibsonton, FL) and maintained in the animal facility of Western Kentucky University according to a protocol approved by the Institutional Animal Care and Use Committee. All zebrafish used in this study were a mix of male and female adult animals at least 6 months of age and were maintained according to standard methods.
Zebrafish were sedated with tricaine methanesulfonate (MS-222, Argent, Redmond, WA), weighed, and then intraperitoneally microinjected with 25 mg/kg body weight of platinum test compound or an equivalent volume of vehicle (0.9% NaCl) control using a 35 gauge syringe operated by a Micro4 microsyringe pump controller (World Precision Instruments, Sarasota, FL). After injection, fish were returned to holding tanks for either 24 or 48 hours and then subjected to hearing tests followed by hair cell quantification analysis. […]
GraphPad Prism v6 (La Jolla, CA) was used for all statistical analysis. Nuclear fraction platinum uptake as a total percent of combined nuclear and cytosolic uptake was analyzed using a one-way ANOVA (Brown-Forsyth test; p ≤ 0.05). IC50 values were calculated in Prism using the sigmoidal, 4PL, x is log(concentration) analysis feature or were calculated from Prism derived values using the equation y = mx + b. […]

The test system of series [4] is A549, Caco2, HTB16 and IMR90 cell lines. The series is described as follows: MTT cellular viability assay, comparison over all cell lines. The following applies: in our cell lines (Table 2). It counts as cell-based. On the procedure: Cell lines were obtained from American Type Culture Collection (ATCC, Manassas, VA). The A549 (ATCC: CCL-185) lung cancer cell line was grown in F12K media with 10% FBS and 1% penicillin/streptomycin supplementation. Both the U-138 MG (ATCC: HTB-16) glioblastoma cancer cell line and IMR-90 (ATCC: CCL-186) lung fibroblast control cell line were grown in Eagle’s Minimum Essential Medium (EMEM) with supplementation as in A549. Caco-2 (ATCC: HTB-37) colorectal cancer was grown in EMEM with 20% FBS and 1% penicillin/streptomycin. All cell lines were incubated at 37°C in 5% CO2 with passaging every 4–7 days. […]
The MTT (3-(4,5-dimethylthiazol-2-yl)-2,5-diphenyltetrazolium bromide) cellular viability assay was performed in all three cancer cell lines and the non-cancer cell line. […] The MTT assay was run for 2 hours, then well contents were rapidly evacuated out and all wells were treated with MTT solubilization solution [10% Triton X-100 in acidic (0.1N HCl) isopropanol] for 15 minutes before the plates were read using a BioTek Synergy HT microplate plate reader (570 nm and 690 nm absorbance wavelengths). […]
GraphPad Prism v6 (La Jolla, CA) was used for all statistical analysis. Nuclear fraction platinum uptake as a total percent of combined nuclear and cytosolic uptake was analyzed using a one-way ANOVA (Brown-Forsyth test; p ≤ 0.05). […]

For the compound `[Cl][Pt-2]12[NH2+]CC[NH+]1CC[NH2+]2` (stereo not drawn) [[Pt(dien)Cl]^+, Pt(diethylenetriamine)Cl], in series [1], the “Relative rate (rate constant divided by the rate constant for [Pt(dien)Cl]^+)” value amounted to 1; the “Rate constant for the reaction of 5'-GMP with the platinum(II) complex” value (from here on “Rate constant for the reaction of 5'-GMP”) is 3.9 ± 0.1 x 10^−1 M^-1s^-1 and 3.9 (+/- 0.1) x 10^−1 M^-1s^-1. The IC50 in series [2] came to 198 ± 4.8 µM. For the same compound, in series [3], the “effect on utricle hair cell density compared to vehicle” value was “one elevated mean hair cell density count at S2”.
On to phenanthriplatin, for which, in series [1], the “Relative rate (rate constant divided by the rate constant for [Pt(dien)Cl]^+)” value stood at 0.041, the “fold reduction in the rate relative to [Pt(dien)Cl]^+” value was ~ 25 fold and the “Rate constant for the reaction of 5'-GMP” value is reported as 1.63 (+/- .02) x 10^−2 M^-1s^-1. Also, in series [1] (listed as phenanthriplatin), the “Rate constant for the reaction of 5'-GMP” value is 1.63 ± 0.02 x 10^-2 M^-1s^-1. The “factor by which cellular viability is reduced more than by pyriplatin” value in series [4] is “at least 10”.
